Data: patent US20260022142A1, “MACROCYCLIC IMMUNOMODULATORS” (Bristol-Myers Squibb Company, priority 2022, published 2026)
Bridge positions count the residues as written; N and C are the ends. Square brackets hold non-standard residues; d marks the D form. Peptide text beside a SMILES is read from it. * marks the point of attachment. ξ: configuration not given here. Bip = N[C@@H](Cc1ccc(-c2ccccc2)cc1)C(=O)O; Ala(2-furyl) = N[C@@H](Cc1ccco1)C(=O)O; Phe(3-Me) = Cc1cccc(C[C@H](N)C(=O)O)c1; Ala(4-THP) = N[C@@H](CC1CCOCC1)C(=O)O; Cha = N[C@@H](CC1CCCCC1)C(=O)O; Cit = NC(=O)NCCC[C@H](N)C(=O)O; Thr(3ξ) = CC(O)[C@H](N)C(=O)O; Ala(CN) = N#CC[C@H](N)C(=O)O; dDab = NCC[C@@H](N)C(=O)O; Carboxymethyl = O=C(O)C*; Orn = NCCC[C@H](N)C(=O)O; Aun = NCCCCCCCCCCC(=O)O; Dab = NCC[C@H](N)C(=O)O

Biological target: T1, PD-1/PD-L1 interaction (PE-labeled human PD-L1-Ig binding to Jurkat cell line over-expressing human PD-1) (Homo sapiens, UniProt Q15116)
T1 construct: expressed in transfected cells; host or cells: Jurkat
Experiment: Jurkat-PD-1 Cell Binding High-Content Screening Assay (CBA)
Assay type: cell-based
Conditions: Jurkat cell line over-expressing human PD-1; PE-labeled PD-L1-Ig 20 nM final; read-out: Jurkat hPD1-PDL1 IC50
Summary of the method: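 Jurkat cells over-expressing human PD-1 (8×10^3 per well, DMEM/10% FCS) preincubated with compound 2 h at 37° C, then PE-labeled human PD-L1-Ig (20 nM final) added for 1 h. Cells fixed with paraformaldehyde, Hoechst-stained, and bound fluorescence quantified by high-content imaging.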

T1 sequence (Q15116 25-288): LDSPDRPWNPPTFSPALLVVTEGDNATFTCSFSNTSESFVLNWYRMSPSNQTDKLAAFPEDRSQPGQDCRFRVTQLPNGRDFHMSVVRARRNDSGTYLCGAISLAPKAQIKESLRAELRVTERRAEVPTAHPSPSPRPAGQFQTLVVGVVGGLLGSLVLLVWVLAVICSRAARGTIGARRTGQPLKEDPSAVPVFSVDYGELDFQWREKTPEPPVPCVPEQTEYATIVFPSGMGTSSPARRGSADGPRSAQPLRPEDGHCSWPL

IC50 [µM] | Compound
0.0336 | CC(C)C[C@H]1NC(=O)[C@H](CCCN)NC(=O)[C@H](Cc2ccc(O)cc2)NC(=O)[C@H](Cc2ccc(-c3ccccc3)cc2)NC(=O)[C@H](C(C)C)NC(=O)[C@H](Cc2c[nH]c3ccccc23)NC(=O)[C@H](CC(=O)O)NC(=O)[C@H](Cc2ccc(OCC(=O)O)cc2)NC(=O)[C@H](CC(N)=O)NC(=O)CSC[C@@H](C(=O)N[C@@H](CCN)C(=O)NCCCCCCCCCCC(=O)O)NC(=O)[C@H](C(C)O)NC(=O)[C@H](C(C)C)NC(=O)[C@H](CC2CCCCC2)NC(=O)[C@H](CCN)NC1=O (stereo partly drawn) [Compound 3421] ({CH2CO}-NY(Carboxymethyl)DWV[Bip]Y[Orn][dL][Dab][Cha]V[Thr(3ξ)]C[Dab][Aun]-OH; thioether N-14)
0.0782 | CC(C)C[C@H]1NC(=O)[C@H](CCCN)NC(=O)[C@H](Cc2ccc(O)cc2)NC(=O)[C@H](Cc2ccc(-c3ccccc3)cc2)NC(=O)[C@H](C(C)C)NC(=O)[C@H](Cc2c[nH]c3ccccc23)NC(=O)[C@H](CC(=O)O)NC(=O)[C@H](Cc2ccc(OCC(=O)O)cc2)NC(=O)[C@H](C(C)O)NC(=O)CSC[C@@H](C(=O)N[C@H](CCN)C(=O)NCCCCCCCCCCC(=O)O)NC(=O)[C@H](Cc2ccco2)NC(=O)[C@H](C(C)C)NC(=O)[C@H](CC2CCCCC2)NC(=O)[C@H](CCN)NC1=O (stereo partly drawn) [Compound 3422] ({CH2CO}-[Thr(3ξ)]Y(Carboxymethyl)DWV[Bip]Y[Orn][dL][Dab][Cha]V[Ala(2-furyl)]C[dDab][Aun]-OH; thioether N-14)
0.133 | CC(C)C[C@H]1NC(=O)[C@H](CCCN)NC(=O)[C@H](Cc2ccc(O)cc2)NC(=O)[C@H](Cc2ccc(-c3ccccc3)cc2)NC(=O)[C@H](C(C)C)NC(=O)[C@H](Cc2c[nH]c3ccccc23)NC(=O)[C@H](CC(=O)O)NC(=O)[C@H](Cc2ccc(OCC(=O)O)cc2)NC(=O)[C@H](C(C)O)NC(=O)CSC[C@@H](C(=O)N[C@@H](CCN)C(=O)NCCCCCCCCCCC(=O)O)NC(=O)[C@H](CC2CCOCC2)NC(=O)[C@H](C(C)C)NC(=O)[C@H](CC2CCCCC2)NC(=O)[C@H](CCN)NC1=O (stereo partly drawn) [Compound 3424] ({CH2CO}-[Thr(3ξ)]Y(Carboxymethyl)DWV[Bip]Y[Orn][dL][Dab][Cha]V[Ala(4-THP)]C[Dab][Aun]-OH; thioether N-14)
0.0548 | CC(C)C[C@H]1NC(=O)[C@H](CCCN)NC(=O)[C@H](Cc2ccc(O)cc2)NC(=O)[C@H](Cc2ccc(-c3ccccc3)cc2)NC(=O)[C@H](C(C)C)NC(=O)[C@H](Cc2c[nH]c3ccccc23)NC(=O)[C@H](CC(=O)O)NC(=O)[C@H](Cc2ccc(OCC(=O)O)cc2)NC(=O)[C@H](CC(N)=O)NC(=O)CSC[C@@H](C(=O)N[C@@H](CCN)C(=O)NCCCCCCCCCCC(=O)O)NC(=O)[C@H](CC#N)NC(=O)[C@H](C(C)C)NC(=O)[C@H](CC2CCCCC2)NC(=O)[C@H](CCN)NC1=O [Compound 3425] ({CH2CO}-NY(Carboxymethyl)DWV[Bip]Y[Orn][dL][Dab][Cha]V[Ala(CN)]C[Dab][Aun]-OH; thioether N-14)
0.0107 | Cc1cccc(C[C@@H]2NC(=O)[C@H](CC(=O)O)NC(=O)[C@H](Cc3ccc(OCC(=O)O)cc3)NC(=O)[C@H](C(C)O)NC(=O)CSC[C@@H](C(=O)N[C@@H](CC(N)=O)C(=O)NCCCCCCCCCCC(=O)O)NC(=O)[C@H](CCCNC(N)=O)NC(=O)[C@H](C(C)C)NC(=O)[C@H](CC3CCCCC3)NC(=O)[C@H](CCN)NC(=O)[C@@H](CC(C)C)NC(=O)[C@H](CCCN)NC(=O)[C@H](Cc3ccc(O)cc3)NC(=O)[C@H](Cc3ccc(-c4ccccc4)cc3)NC(=O)[C@H](C(C)C)NC2=O)c1 (stereo partly drawn) [Compound 3426] ({CH2CO}-[Thr(3ξ)]Y(Carboxymethyl)D[Phe(3-Me)]V[Bip]Y[Orn][dL][Dab][Cha]V[Cit]CN[Aun]-OH; thioether N-14)
0.0168 | Cc1cccc(C[C@@H]2NC(=O)[C@H](CC(=O)O)NC(=O)[C@H](Cc3ccc(OCC(=O)O)cc3)NC(=O)[C@H](C(C)O)NC(=O)CSC[C@@H](C(=O)N[C@@H](CC(N)=O)C(=O)NCCCCCCCCCCC(=O)O)NC(=O)[C@H](C(C)O)NC(=O)[C@H](C(C)C)NC(=O)[C@H](CC3CCCCC3)NC(=O)[C@H](CCN)NC(=O)[C@@H](CC(C)C)NC(=O)[C@H](CCCN)NC(=O)[C@H](Cc3ccc(O)cc3)NC(=O)[C@H](Cc3ccc(-c4ccccc4)cc3)NC(=O)[C@H](C(C)C)NC2=O)c1 (stereo partly drawn) [Compound 3427] ({CH2CO}-[Thr(3ξ)]Y(Carboxymethyl)D[Phe(3-Me)]V[Bip]Y[Orn][dL][Dab][Cha]V[Thr(3ξ)]CN[Aun]-OH; thioether N-14)
0.0098 | Cc1cccc(C[C@@H]2NC(=O)[C@H](CC(=O)O)NC(=O)[C@H](Cc3ccc(OCC(=O)O)cc3)NC(=O)[C@H](C(C)O)NC(=O)CSC[C@@H](C(=O)N[C@H](CC(N)=O)C(=O)NCCCCCCCCCCC(=O)O)NC(=O)[C@H](CCC(N)=O)NC(=O)[C@H](C(C)C)NC(=O)[C@H](CC3CCCCC3)NC(=O)[C@H](CCN)NC(=O)[C@@H](CC(C)C)NC(=O)[C@H](CCCN)NC(=O)[C@H](Cc3ccc(O)cc3)NC(=O)[C@H](Cc3ccc(-c4ccccc4)cc3)NC(=O)[C@H](C(C)C)NC2=O)c1 (stereo partly drawn) [Compound 3428] ({CH2CO}-[Thr(3ξ)]Y(Carboxymethyl)D[Phe(3-Me)]V[Bip]Y[Orn][dL][Dab][Cha]VQC[dN][Aun]-OH; thioether N-14)
0.0415 | CC(C)C[C@H]1NC(=O)[C@H](CCCN)NC(=O)[C@H](Cc2ccc(O)cc2)NC(=O)[C@H](Cc2ccc(-c3ccccc3)cc2)NC(=O)[C@H](Cc2ccc(O)cc2)NC(=O)[C@H](Cc2c[nH]c3ccccc23)NC(=O)[C@H](CC(=O)O)NC(=O)[C@H](Cc2ccc(OCC(=O)O)cc2)NC(=O)[C@H](C(C)O)NC(=O)CSC[C@@H](C(=O)N[C@H](CC(N)=O)C(=O)NCCCCCCCCCCC(=O)O)NC(=O)[C@H](C(C)O)NC(=O)[C@H](C(C)C)NC(=O)[C@H](CC2CCCCC2)NC(=O)[C@H](CCN)NC1=O (stereo partly drawn) [Compound 3429] ({CH2CO}-[Thr(3ξ)]Y(Carboxymethyl)DWY[Bip]Y[Orn][dL][Dab][Cha]V[Thr(3ξ)]C[dN][Aun]-OH; thioether N-14)
0.0076 | Cc1cccc(C[C@@H]2NC(=O)[C@H](CC(=O)O)NC(=O)[C@H](Cc3ccc(OCC(=O)O)cc3)NC(=O)[C@H](C(C)O)NC(=O)CSC[C@@H](C(=O)N[C@H](CC(N)=O)C(=O)NCCCCCCCCCCC(=O)O)NC(=O)[C@H](C(C)O)NC(=O)[C@H](C(C)C)NC(=O)[C@H](CC3CCCCC3)NC(=O)[C@H](CCN)NC(=O)[C@@H](CC(C)C)NC(=O)[C@H](CCCN)NC(=O)[C@H](CCC(N)=O)NC(=O)[C@H](Cc3ccc(-c4ccccc4)cc3)NC(=O)[C@H](C(C)C)NC2=O)c1 (stereo partly drawn) [Compound 3430] ({CH2CO}-[Thr(3ξ)]Y(Carboxymethyl)D[Phe(3-Me)]V[Bip]Q[Orn][dL][Dab][Cha]V[Thr(3ξ)]C[dN][Aun]-OH; thioether N-14)
0.0049 | CC(=O)NCCCC[C@@H]1NC(=O)[C@H](Cc2ccc(-c3ccccc3)cc2)NC(=O)[C@H](C(C)C)NC(=O)[C@H](Cc2cccc(C)c2)NC(=O)[C@H](CC(=O)O)NC(=O)[C@H](Cc2ccc(OCC(=O)O)cc2)NC(=O)[C@H](C(C)O)NC(=O)CSC[C@@H](C(=O)N[C@H](CC(N)=O)C(=O)NCCCCCCCCCCC(=O)O)NC(=O)[C@H](C(C)O)NC(=O)[C@H](C(C)C)NC(=O)[C@H](CC2CCCCC2)NC(=O)[C@H](CCN)NC(=O)[C@@H](CC(C)C)NC(=O)[C@H](CCCN)NC1=O (stereo partly drawn) [Compound 3431] ({CH2CO}-[Thr(3ξ)]Y(Carboxymethyl)D[Phe(3-Me)]V[Bip]K(Ac)[Orn][dL][Dab][Cha]V[Thr(3ξ)]C[dN][Aun]-OH; thioether N-14)
0.0114 | Cc1cccc(C[C@@H]2NC(=O)[C@H](CC(=O)O)NC(=O)[C@H](Cc3ccc(OCC(=O)O)cc3)NC(=O)[C@H](C(C)O)NC(=O)CSC[C@@H](C(=O)N[C@H](CC(N)=O)C(=O)NCCCCCCCCCCC(=O)O)NC(=O)[C@H](CO)NC(=O)[C@H](C(C)C)NC(=O)[C@H](CC3CCCCC3)NC(=O)[C@H](CCN)NC(=O)[C@@H](CC(C)C)NC(=O)[C@H](CCCN)NC(=O)[C@H](Cc3ccc(O)cc3)NC(=O)[C@H](Cc3ccc(-c4ccccc4)cc3)NC(=O)[C@H](C(C)C)NC2=O)c1 (stereo partly drawn) [Compound 3432] ({CH2CO}-[Thr(3ξ)]Y(Carboxymethyl)D[Phe(3-Me)]V[Bip]Y[Orn][dL][Dab][Cha]VSC[dN][Aun]-OH; thioether N-14)
0.0406 | CC(C)C[C@H]1NC(=O)[C@H](CCCN)NC(=O)[C@H](Cc2ccc(O)cc2)NC(=O)[C@H](Cc2ccc(-c3ccccc3)cc2)NC(=O)[C@H](Cc2ccc(O)cc2)NC(=O)[C@H](Cc2c[nH]c3ccccc23)NC(=O)[C@H](CC(=O)O)NC(=O)[C@H](Cc2ccc(OCC(=O)O)cc2)NC(=O)[C@H](C(C)O)NC(=O)CSC[C@@H](C(=O)N[C@H](CC(N)=O)C(=O)NCCCCCCCCCCC(=O)O)NC(=O)[C@H](CCC(N)=O)NC(=O)[C@H](C(C)C)NC(=O)[C@H](CC2CCCCC2)NC(=O)[C@H](CCN)NC1=O (stereo partly drawn) [Compound 3433] ({CH2CO}-[Thr(3ξ)]Y(Carboxymethyl)DWY[Bip]Y[Orn][dL][Dab][Cha]VQC[dN][Aun]-OH; thioether N-14)
0.0105 | Cc1cccc(C[C@@H]2NC(=O)[C@H](CC(=O)O)NC(=O)[C@H](Cc3ccc(OCC(=O)O)cc3)NC(=O)[C@H](CCCNC(=N)N)NC(=O)CSC[C@@H](C(=O)N[C@H](CC(N)=O)C(=O)NCCCCCCCCCCC(=O)O)NC(=O)[C@H](CCC(N)=O)NC(=O)[C@H](C(C)C)NC(=O)[C@H](CC3CCCCC3)NC(=O)[C@H](CCN)NC(=O)[C@@H](CC(C)C)NC(=O)[C@H](CCCN)NC(=O)[C@H](CCCNC(N)=O)NC(=O)[C@H](Cc3ccc(-c4ccccc4)cc3)NC(=O)[C@H](C(C)C)NC2=O)c1 [Compound 3434] ({CH2CO}-RY(Carboxymethyl)D[Phe(3-Me)]V[Bip][Cit][Orn][dL][Dab][Cha]VQC[dN][Aun]-OH; thioether N-14)
